Values of other authors as cited in patent US20130165511A1, “TREATMENT FOR COCAINE ADDICTION” (priority 2010, published 2013).

Columns and labels:
ALDH-I = molecular target: T1, ALDH-I (Homo sapiens, UniProt P05091)
T1 sequence (P05091 18-517): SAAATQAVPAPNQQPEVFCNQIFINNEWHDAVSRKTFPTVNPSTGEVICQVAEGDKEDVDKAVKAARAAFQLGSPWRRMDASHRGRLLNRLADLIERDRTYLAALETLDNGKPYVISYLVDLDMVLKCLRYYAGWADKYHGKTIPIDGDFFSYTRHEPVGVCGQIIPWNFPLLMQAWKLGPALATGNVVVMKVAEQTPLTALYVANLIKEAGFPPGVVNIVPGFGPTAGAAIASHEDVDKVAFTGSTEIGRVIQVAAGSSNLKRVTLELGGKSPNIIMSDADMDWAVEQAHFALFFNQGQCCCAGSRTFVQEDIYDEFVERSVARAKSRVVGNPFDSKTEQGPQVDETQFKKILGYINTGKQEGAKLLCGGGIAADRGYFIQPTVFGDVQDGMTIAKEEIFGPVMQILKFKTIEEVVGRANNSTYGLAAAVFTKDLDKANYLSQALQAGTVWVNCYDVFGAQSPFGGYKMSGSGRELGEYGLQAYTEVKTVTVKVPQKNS

CYP2D6 = CYP2D6 (Homo sapiens, UniProt P10635)
CYP2C19 = CYP2C19 (Homo sapiens, UniProt P33261)
CYP2B6 = molecular target: T2, CYP2B6 (Homo sapiens, UniProt P20813)
T2 sequence (P20813 1-491): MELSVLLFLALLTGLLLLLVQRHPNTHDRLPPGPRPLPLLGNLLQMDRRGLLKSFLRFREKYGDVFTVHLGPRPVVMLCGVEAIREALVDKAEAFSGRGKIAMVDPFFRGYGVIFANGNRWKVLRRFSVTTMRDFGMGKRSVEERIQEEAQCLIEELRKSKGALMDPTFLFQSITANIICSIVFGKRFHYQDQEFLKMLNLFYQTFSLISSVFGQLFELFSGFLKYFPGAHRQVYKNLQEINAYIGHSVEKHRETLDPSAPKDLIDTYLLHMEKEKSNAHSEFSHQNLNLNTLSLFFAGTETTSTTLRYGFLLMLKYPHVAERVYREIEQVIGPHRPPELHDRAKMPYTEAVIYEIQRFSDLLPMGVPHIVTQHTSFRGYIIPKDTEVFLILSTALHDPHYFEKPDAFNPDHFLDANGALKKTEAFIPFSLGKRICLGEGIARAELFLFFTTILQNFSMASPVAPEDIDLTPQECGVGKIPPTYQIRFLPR

ALDH-II = molecular target: T3, ALDH-II (Homo sapiens, UniProt P00352)
T3 sequence (P00352 1-501): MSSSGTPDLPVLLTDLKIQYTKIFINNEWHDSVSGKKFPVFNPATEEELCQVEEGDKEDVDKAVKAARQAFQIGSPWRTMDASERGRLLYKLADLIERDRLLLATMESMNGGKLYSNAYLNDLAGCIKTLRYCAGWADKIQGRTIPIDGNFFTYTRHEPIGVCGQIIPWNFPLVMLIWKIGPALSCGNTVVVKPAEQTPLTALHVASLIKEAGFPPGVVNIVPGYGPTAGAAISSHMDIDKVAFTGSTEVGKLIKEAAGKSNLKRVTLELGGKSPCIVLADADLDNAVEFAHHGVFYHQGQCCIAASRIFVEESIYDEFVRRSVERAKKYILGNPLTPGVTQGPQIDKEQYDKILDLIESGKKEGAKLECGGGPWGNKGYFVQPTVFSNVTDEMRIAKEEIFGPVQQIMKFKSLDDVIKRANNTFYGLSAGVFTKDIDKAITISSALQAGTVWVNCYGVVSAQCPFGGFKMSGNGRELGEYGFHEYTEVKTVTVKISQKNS

[1] = 10 mg CR, double-blind randomized study of 134 subjects with cocaine dependence, post hoc analyses
[2] = animal studies, dosage range 0.001-1.0 mg/kg
ALDH = conditions: rat studies
[3] = rat studies

Chain of CYP2D6 (P10635 whole entry): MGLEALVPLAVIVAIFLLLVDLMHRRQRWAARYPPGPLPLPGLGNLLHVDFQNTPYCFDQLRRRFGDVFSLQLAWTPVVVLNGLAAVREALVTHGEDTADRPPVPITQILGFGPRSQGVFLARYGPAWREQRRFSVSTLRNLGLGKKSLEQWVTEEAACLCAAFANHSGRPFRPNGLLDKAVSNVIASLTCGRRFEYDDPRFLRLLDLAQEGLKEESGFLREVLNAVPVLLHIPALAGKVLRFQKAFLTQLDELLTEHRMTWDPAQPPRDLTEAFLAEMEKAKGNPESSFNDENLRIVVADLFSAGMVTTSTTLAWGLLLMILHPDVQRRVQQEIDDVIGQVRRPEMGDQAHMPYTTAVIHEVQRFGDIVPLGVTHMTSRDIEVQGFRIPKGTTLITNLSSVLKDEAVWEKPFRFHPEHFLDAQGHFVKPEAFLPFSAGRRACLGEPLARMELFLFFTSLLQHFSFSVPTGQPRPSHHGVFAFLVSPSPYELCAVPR
Chain of CYP2C19 (P33261 whole entry): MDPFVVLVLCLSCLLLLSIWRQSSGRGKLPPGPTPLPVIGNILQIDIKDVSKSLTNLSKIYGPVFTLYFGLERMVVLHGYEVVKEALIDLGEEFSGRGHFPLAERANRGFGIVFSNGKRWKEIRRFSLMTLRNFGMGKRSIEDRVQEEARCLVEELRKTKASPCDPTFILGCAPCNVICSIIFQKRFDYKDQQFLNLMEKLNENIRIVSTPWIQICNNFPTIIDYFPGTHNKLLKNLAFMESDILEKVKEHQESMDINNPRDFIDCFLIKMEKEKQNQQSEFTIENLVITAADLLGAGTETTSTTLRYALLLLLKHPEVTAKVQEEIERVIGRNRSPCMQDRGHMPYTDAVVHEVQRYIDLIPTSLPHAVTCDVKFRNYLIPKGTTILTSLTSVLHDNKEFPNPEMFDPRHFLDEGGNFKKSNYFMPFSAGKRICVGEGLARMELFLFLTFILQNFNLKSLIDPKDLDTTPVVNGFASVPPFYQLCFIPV

## O=c1c(-c2ccc(O)cc2)coc2cc(O[C@@H]3O[C@H](CO)[C@@H](O)[C@H](O)[C@H]3O)ccc12 [Daidzin, daidzin]
ALDH-I
  inhibition of ALDH-I: selective potent reversible inhibitor

## C#CCNC(C)Cc1ccccc1 (centres unmarked) [N-des methyl selegiline]
CYP2D6
  inhibition of CYP2D6: concentration dependent inhibition
CYP2C19
  inhibition of CYP2C19: concentration dependent inhibition
CYP2B6
  inhibition of CYP2B6: concentration dependent inhibition

## N#CN [cyanamide]
ALDH-I; in vitro
  inhibition of ALDH-I in vitro: unable to inhibit
ALDH-II
  inhibition of ALDH-II in vitro: unable to inhibit

## C#CCN(C)[C@H](C)Cc1ccccc1 [selegiline]
10 mg CR formulation, eight subjects
  self-reported 'high' and 'stimulated' feelings after cocaine administration, area under the curve: decreased
Selegiline 10 mg po/day followed by acute cocaine infusion, PET study
  reduction in subjective euphoria: 40%
[1]
  composite score of urine benzoylecgonine (BE), self report and observed improvement: statistically significant effect
CYP2D6
  inhibition of CYP2D6: concentration dependent inhibition
CYP2B6
  inhibition of CYP2B6: concentration dependent inhibition
[2]
  safety and abuse potential: safe agent without potential abuse

## N5-(hydroxycyclopropyl)-L-glutamine [coprine]
ALDH
  ALDH inhibition compared to disulfiram: more potent inhibitor
[3]
  ethanol consumption: effectively suppressed
